Data taken from PMC6155272, “Chroman-4-One Derivatives Targeting Pteridine Reductase 1 and Showing Anti-Parasitic Activity” (Molecules : A Journal of Synthetic Chemistry and Natural …, 2017).

Experiments:
[1] = molecular target: T1, Leishmania major pteridine reductase 1 (LmPTR1) (Leishmania major, UniProt Q01782); assay: LmPTR1 enzyme reporter assay (cytochrome-c reduction, 550 nm); format: biochemical; conditions: for IC50: compounds 1–3, SD agreed to ±10%; for inhibition at 50 µM: read-out: % Inhibition LmPTR1 (50 μM)
T1 construct: made in house
T1 sequence (Q01782 1-288): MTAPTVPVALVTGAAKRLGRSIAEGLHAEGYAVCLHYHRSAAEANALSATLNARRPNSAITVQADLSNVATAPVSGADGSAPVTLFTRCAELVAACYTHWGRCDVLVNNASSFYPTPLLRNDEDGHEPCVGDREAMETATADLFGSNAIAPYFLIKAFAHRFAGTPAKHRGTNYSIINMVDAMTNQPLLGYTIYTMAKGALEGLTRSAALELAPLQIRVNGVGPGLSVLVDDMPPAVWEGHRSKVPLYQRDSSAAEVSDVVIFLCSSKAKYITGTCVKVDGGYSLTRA
Method: TbPTR1 and LmPTR1 were purified as reported in literature. The enzyme kinetic profile of each selected protein was characterized by a spectrophotometric assay. The experimental assay consists of enzyme kinetic reaction monitoring at 340 nm for a total time of 180 s. The enzyme kinetic activity was measured at steady-state concentration of 7,8-dihydro-L-biopterin (H2B) and NADPH substrates equal to 50 and 120 µM and varying the enzyme concentration in the 0.001–0.006 µM and 0.005–0.010–0.015–0.020–0.025–0.030 µM range for Lm- and TbPTR1, respectively. The resulting kcat values were equal to 0.68 (s^−1) and 7.2 (s^−1) for Tb- and LmPTR1, respectively. For both TbPTR1 and LmPTR1, the Km value evaluation assay for H2B- and NADPH-substrates was performed in the 0.3-0.6–0.9–1.2–2.4–4.8 µM and 3.0–6.0–12.0–40.0–90.0–190.0 µM concentrations range, respectively.
Compounds 1A–3A were evaluated as reported in our previous paper. The novel synthesized compounds 1–3 were tested towards TbPTR1 and LmPTR1 using the in vitro TbPTR1/LmPTR1 enzyme reporter assay. The experimental procedure consists of monitoring the non-enzymatic reduction reaction of cytochrome-c at 550 nm, related to the reduction reaction of H2B to tetrahydrobiopterin (H4B) by using NADPH as the cofactor. TbPTR1 and LmPTR1 enzyme activity was assayed in a buffer containing 20 mM sodium citrate (pH 6.0) in a final experimental volume equal to 600 µL. The final reaction mixture contained different substrates added in the following order: TbPTR1/LmPTR1 (0.018 µM/0.002 µM) in 20 mM Tris-HCl, glycerol 10% (v/v), pH 7.5; H2B at a final concentration equal to 0.3 µM; cytochrome-c (80 µM); Milli-Q water to a final volume of 600 µL and NADPH to a final concentration of 500 µM. Before the addition of NADPH, the reaction mixture was incubated for 10 min at 30 °C and 80 RPM. To allow the starting of the reaction, NADPH was added and the enzyme reaction was detected for a total time of 10 min at 30 °C, 550 nm. The inhibition profile characterization of compounds 1–3 was performed with a DU-640 spectrophotometer (Beckman Coulter, Brea, CA, USA). Each compound was assayed in duplicate against Tb/LmPTR1 target enzymes in the 0–10–25–50–80–150 µM concentrations range. At the different concentration values, the compounds were added to the reaction mixture (enzyme, H2B, cytochrome-c in 20 mM sodium citrate buffer and Milli-Q water) and incubated for 10 min at 30 °C, 80 RPM. The reaction was initiated by the addition of NADPH (500 µM) and monitored for 10 min at 30 °C, 550 nm. The absorbance values were processed by software analysis and transformed into the corresponding slopes. The percentages of inhibition and the IC50 values were determined.

[2] = test system: W1-38 cells; assay: Cytotoxicity assay against W1-38 cells (CellTiter-Glo); format: cell-based; conditions: 100% = not cytotoxic, 0% = cytostatic
Method: The assays were performed using the CellTiter-Glo assay from Promega (Madison, AL, USA). The assay detects cellular adenosine triphosphate (ATP) content with the amount of ATP being directly proportional to the number of cells present. The A549 cells were obtained from DSMZ (German Collection of Microorganisms and Cell Cultures, Braunschweig, Germany) and W1-38 cells were obtained from ATCC (ATCC® CCL-75™) and were grown in Dulbecco's Modified Eagle Medium (DMEM) from Capricorn Scientific GmbH, Ebsdorfergrund, Germany with fetal bovine serum (FBS) (10% v/v) from Capricorn Scientific GmbH, Ebsdorfergrund, Germany, streptomycin (100 μg/mL) and penicillin G (100 U/mL).

[3] = molecular target: T2, CYP3A4 (Homo sapiens, UniProt P08684); assay: Cytochrome P450 3A4 assay (P450-Glo); format: in vitro ADME; conditions: for inhibition at 10 µM: human
T2 construct: purchased Promega; host or cells: baculovirus-infected insect cells
T2 sequence (P08684 whole entry): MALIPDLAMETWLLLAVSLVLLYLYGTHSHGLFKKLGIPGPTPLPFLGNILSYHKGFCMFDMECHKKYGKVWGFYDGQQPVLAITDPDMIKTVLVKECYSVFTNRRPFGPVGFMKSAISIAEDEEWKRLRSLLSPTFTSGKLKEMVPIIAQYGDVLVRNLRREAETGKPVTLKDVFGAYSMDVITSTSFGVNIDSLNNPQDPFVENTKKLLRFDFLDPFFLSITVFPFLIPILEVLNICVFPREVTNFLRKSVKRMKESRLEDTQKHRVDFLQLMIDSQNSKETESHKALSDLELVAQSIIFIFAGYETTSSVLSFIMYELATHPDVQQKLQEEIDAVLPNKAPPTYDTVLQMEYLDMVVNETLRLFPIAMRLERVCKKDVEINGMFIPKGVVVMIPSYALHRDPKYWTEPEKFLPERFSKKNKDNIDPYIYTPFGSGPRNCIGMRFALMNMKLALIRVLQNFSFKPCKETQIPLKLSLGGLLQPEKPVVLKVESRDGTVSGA
From the text: These assays made use of the PromegaP450-Glo™ (Madison, AL, USA) assay platform. Each CYP450 assay includes microsomal preparations of cytochromes from baculovirus-infected insect cells.

[4] = test system: T. brucei bloodstream forms; assay: Activity against T. brucei bloodstream forms (resazurin-based assay); format: cell-based, Trypanosoma brucei; conditions: for EC50 / inhibition at 10 µM: bloodstream form; for EC50: dose response; for inhibition at 10 µM: read-out: % inh. T. brucei (10 μM); for selectivity index (SI): ratio between CC50 toward THP-1 and EC50 toward T. brucei
Method: The efficacy of compounds against T. brucei bloodstream forms was evaluated using a modified resazurin-based assay previously described in literature.

[5] = test system: 786-O (renal carcinoma) cell line; assay: Mitochondrial toxicity (MitoTracker Red CMXRos uptake, high content imaging); format: cell-based; set-up: key to % Mitochondrial toxicity: NI: no inhibition; conditions: for % Mitochondrial toxicity: 10 µM, 100% = mitotoxic, 0% = not mitotoxic; for IC50: Homo sapiens, 786-0, read-out: IC50 Mitochondria
Method: This made use of MitoTracker® Red chloromethyl-X-rosamine (CMXRos) uptake and High Content Imaging to monitor compound mediated mitochondrial toxicity in the 786-O (renal carcinoma) cell line. Cells were maintained using Roswell Park Memorial Institute-1640 (RPMI-1640) medium from Capricorn Scientific GmbH, Ebsdorfergrund, Germany containing 2 mM glutamine, FBS (10% v/v), streptomycin (100 μg/mL) and penicillin G (100 U/mL).

SMILES	IC50 [1] [µM]	inhibition at 50 µM [1] [%]	% Cell growth W1-38 (10 μM) [2] [%]	IC50 [3] [µM]	inhibition at 10 µM [3] [%]	EC50 ([4]; Trypanosoma brucei) [µM]	inhibition at 10 µM ([4]; Trypanosoma brucei) [%]	EC50 [4] [µM]	selectivity index (SI) [4]	% Mitochondrial toxicity [5]	IC50 [5] [µM]
O=C1CC(c2cccc(O)c2)Oc2ccc(O)cc21 (centres unmarked) [Compound 1]	57	50.4	108	80	< 15	12.6 ± 1.69	44	12.6 ± 1.7	greater than 7	6%	> 100
O=C1CC(c2ccc(O)cc2)Oc2ccc(O)cc21 (centres unmarked) [Compound 2]	35	56	91	> 100	< 15	13 ± 1.82	49	13 ± 1.8	higher than 7	NI	> 100
O=C1CC(c2ccc(O)c(O)c2)Oc2ccc(O)cc21 (centres unmarked) [Compound 3]	36	69	86	65	< 15	34.8 ± 1.1	14	34.8 ± 1.1		NI	> 100
